The test system of experiment [1] is cAMP response element luciferase activity in human U937 monocytic cells. Kind of experiment: Potentiation of forskolin-induced CRE-luciferase activity in U937 cells. It counts as cell-based. The settings on record: U-937, U937 cells co-incubated with 10 μM forskolin, 4 hours, X marks this range. Here is the method: Compounds of the present invention were thereby shown to provide potentiated luciferase expression in U937 cells treated with the adenylyl cyclase activator forskolin.
Human pro-monocytic U937 cells were maintained in RPMI medium containing 10% FCS and 2 mM […]. U937 cells were transiently transfected as described in Biotechniques Vol. 17(6):1058, 1994. Briefly, cells were grown in medium containing serum to a density of 5×10^6 cells/mL and then resuspended in media containing serum at a density of approximately 1×10^7 cells/mL. 400 μL of cells were transferred into the electroporation cuvette containing 10 μg of the reporter vector (PCRE-luc) in a volume of 40 μL H2O. Reporter vector DNA was prepared from DH5α E. coli using the DNA […] free kit (Qiagen) as per manufacturers instructions. U937 cells were clectroporated at room temperature using a BIORAD electroporator. Capacitance was set to 1050 μF and voltage was 280V. The time constant was noted after each electroporation. Cells were then diluted in 4 mL of media and serum and 200 μL of cells were plated per well. Cells were allowed to recover for 16-18 hours. Cells were then treated with a test compound or vehicle in the presence or absence of 10 μM forskolin for 4 hours at 37° C.
The luciferase assay was performed as per manufacturers instructions (Tropix). Briefly, cells were centrifuged for 4 minutes at 1200 rpm and media supernatant was removed. Cell pellets were lysed in 15 μL Lysis buffer (Tropix). Luciferase assay was performed using 10 μL of cell lysate with 10 μL of buffer A and 25 μL buffer B. Luciferase activity was obtained using a luminometer with a 5-second delay followed by a read time of 10 seconds.

For experiment [2], the system named is High Affinity Rolipram Binding Site of PDE4 in Mouse Brain. The experiment can be described thus: Displacement of [3H]-rolipram from its high affinity binding site (HARBS). As to conditions: ratio of IC50 for PDE4 catalytic activity to concentration displacing 50% of rolipram from HARBS. Here is the method: Suspension was centrifuged twice at 30,000×G at 4° C. and the supernatant discarded. The pellet was resuspended in buffer, and adjusted to a protein concentration of 0.5 mg/mL. Drugs to be tested were dissolved in DMSO and pipetted in triplicate into a 96 well microplate at concentrations ranging from 1 to 30,000 nM. […] The plate was incubated at 4° C. for 1 hour. Contents of the plate were aspirated through a Whatman GF/C filterplate, and rinsed with 4×200 μL ice-cold buffer. […] Triplicate determinations were performed at each concentration.

The target of experiment [3] is T1, cAMP phosphodiesterase 3 from human platelets (Homo sapiens, UniProt Q14432).
T1 construct: from tissue; host or cells: human platelets, cytoplasmic extract
T1 sequence (Q14432 whole entry): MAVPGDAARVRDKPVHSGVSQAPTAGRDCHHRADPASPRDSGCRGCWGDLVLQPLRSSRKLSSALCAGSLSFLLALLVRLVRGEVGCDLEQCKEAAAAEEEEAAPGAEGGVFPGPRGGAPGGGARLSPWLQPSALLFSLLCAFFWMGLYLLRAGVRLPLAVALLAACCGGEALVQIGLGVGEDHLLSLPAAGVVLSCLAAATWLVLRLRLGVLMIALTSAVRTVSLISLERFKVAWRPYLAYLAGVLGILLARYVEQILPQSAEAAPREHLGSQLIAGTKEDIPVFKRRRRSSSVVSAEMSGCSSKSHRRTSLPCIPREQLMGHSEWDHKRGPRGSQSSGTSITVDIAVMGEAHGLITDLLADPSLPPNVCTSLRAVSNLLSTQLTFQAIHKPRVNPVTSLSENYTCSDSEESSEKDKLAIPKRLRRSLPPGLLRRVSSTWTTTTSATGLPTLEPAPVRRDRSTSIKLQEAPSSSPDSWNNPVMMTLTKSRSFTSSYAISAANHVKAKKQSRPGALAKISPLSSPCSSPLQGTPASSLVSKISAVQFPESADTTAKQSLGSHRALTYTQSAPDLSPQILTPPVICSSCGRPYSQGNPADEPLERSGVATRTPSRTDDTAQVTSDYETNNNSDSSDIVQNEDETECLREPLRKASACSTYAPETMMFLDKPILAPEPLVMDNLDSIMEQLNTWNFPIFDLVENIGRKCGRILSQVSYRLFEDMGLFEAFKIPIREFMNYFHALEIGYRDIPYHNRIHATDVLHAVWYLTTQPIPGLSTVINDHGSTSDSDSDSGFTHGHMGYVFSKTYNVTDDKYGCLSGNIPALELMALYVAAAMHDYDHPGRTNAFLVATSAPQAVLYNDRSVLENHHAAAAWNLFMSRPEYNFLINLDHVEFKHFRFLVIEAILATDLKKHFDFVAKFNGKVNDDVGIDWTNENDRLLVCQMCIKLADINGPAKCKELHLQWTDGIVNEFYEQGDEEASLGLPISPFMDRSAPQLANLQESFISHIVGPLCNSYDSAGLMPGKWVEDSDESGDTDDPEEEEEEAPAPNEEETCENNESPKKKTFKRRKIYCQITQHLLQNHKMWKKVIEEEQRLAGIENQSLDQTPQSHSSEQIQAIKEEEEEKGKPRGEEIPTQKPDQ
The experiment can be described thus: Inhibition of cAMP phosphodiesterase 3 from human platelets. Type of experiment: biochemical. The settings on record: PDE3, platelet cell extract, X marks this range. From the text: Compound 12 was screened for activity against 5 of the major classes of mammalian cyclic nucleotide phosphodiesterase (termed PDE 1 through 5). PDE's 1 through 4 utilize cAMP as substrate while PDE 5 uses cGMP. The broad specificity PDE inhibitor 3-isobutyl-1-methylxanthine (IBMX; Sigma; Catalogue No. 17018)) was used as a positive control in all assays. PDE's for the various assays were partially purified from the following cells/tissues; PDE 1 (bovine heart), PDE 2 (human platelets), PDE 3 (human platelets), PDE 4 (human promonocytic U937 cells) and PDE 5 (human platelets).
Platelet cell extracts were prepared as described above for the U937 cells. The PDE3 assay was performed using platelet cell extract as described above for the PDE 4 assay. Platelets contain PDE 2, 3 and 5. However PDE2 and 5 preferentially utilize cGMP, so in an assay with cAMP as a substrate they are not detected.

The test system of experiment [4] is primary human neutrophils. The experiment can be described thus: fMLP-induced human neutrophil chemotaxis. Type of experiment: cell-based. The settings on record: fMLP-induced chemotaxis, X marks this range. Here is the method: Chemotaxis buffer containing the chemoattractant fMLP (10 μM) was added to each well of a chemotaxis plate and a filter was inserted ensuring contact between the filter and the chemotaxis buffer in the well. A submaximal concentration of chemoattractant was used which had been determined in previous experiments. […] Freshly isolated neutrophils (1×10^6) were incubated with vehicle (0.125% DMSO)±test compound for 1 hr at 37° C. Treatment and control cell suspensions were then gently resuspended and 20 μL of cells was added to the top side of the filter on each well. The plate was incubated for 1.5 hours at 37° C. under 5% CO2. Cells were then removed from the top side of the filter by aspiration and the entire plate was centrifuged. The filter was removed and known concentrations of cells were added to unused wells to prepare a standard curve. XTT (Sigma; Catalogue No. X 4251)/PMS (Sigma; Catalogue No. P 7626) solution prepared in buffer was added to each well and the cells were further incubated 1-2 hours and measured for absorbance at 450 nm. Absorbance values were converted to cell numbers using the standard curve. IC50 values are averages from at least three separate experiments with triplicate determinations.

Experiment [5] has as its system Resiniferitoxin-induced mouse ear edema. The experiment can be described thus: Resiniferitoxin-induced mouse ear edema. It counts as in vivo. As to conditions: CD1 mice; for inhibition in vivo at 100 mg/kg: ip, intraperitoneal administration. An excerpt: One of the primary characteristics of inflammation is an increase in vascular dilation and permeability leading to the extravasation of, and collection of fluids in, the interstitium, resulting in redness and swelling. Rheumatoid arthritis in particular is characterized by pronounced edema of affected joints resulting in significant pain and stiffness. The mouse ear inflammation model is a standard in vivo assay for inflammation that is based on an increase in ear weight which is attributable to edema induced by inflammatory mediators. RTX (resiniferitoxin; Sigma; Catalogue No. R 8756)) is a diterpene isolated from the plant Euphorbia poisonii and is an ultrapotent analog of capsaicin. RTX acts by selectively stimulating nociceptive and thermal-sensitive nerve ending in tissue, eliciting neurogenic edema. Compounds of the present invention, whether administered topically, intraperitoneally or orally, inhibited development of edema induced by topical application of RTX.
Mice (CD1, Charles River Laboratories) were separated into groups (n—5−8) and tagged. Control mice had RTX (0.1 μg/ear) applied topically to the inner and outer sides of the left ear and vehicle applied to the right ear as a control. For topical administration, experimental/treatment mice received RTX+test compound solution (50 μg/ear) on the left ear and acetone on the right ear. For intraperitoneal (i.p.) administration, 100 mg/kg test compound dissolved in 100 μL PEG 200:saline (1:1) was injected followed by a 30 minute waiting period then the standard 30 minute RTX edema induction. For oral (p.o.) administration, 10 mg/kg test compound in 100 μL PEG-200 was given to animals, then edema induced using 0.1 μg/ear RTX after a 1.5 hour waiting period. After edema induction, mice were sacrificed, and a standard disc of ear tissue was removed. Each disk of tissue was immediately weighed to the nearest 1/10th of a mg. Data were analyzed by taking the difference of each left ear from the right ear, calculating the mean+/−SEM. Statistical significance was tested by 2-sample t-test on the left/right ear weight differences of the control group vs. the experimental group.

The subject of experiment [6] is primary human neutrophils. Kind of experiment: Generation of reactive oxygen species by fMLP-activated neutrophils (luminol-enhanced chemiluminescence). Type of experiment: cell-based. As to conditions: Neutrophil. An excerpt:
Neutrophil activation can be measured by quantitation of ROS generated in vitro. Measurement of ROS allows specific quantitation of a pro-inflammatory species and is also a general measure of neutrophil activation. The most sensitive method for measuring the production of ROS by neutrophils is luminol-enhanced chemiluminescence. […] The assay system used to evaluate the ability of compounds to inhibit ROS generation in neutrophils is indicative of anti-inflammatory activity that may be efficacious in disease states including but not limited to rheumatoid arthritis and inflammatory bowel disease.
Freshly isolated primary human neutrophils (5×10^6 cells/mL) were incubated with the required concentrations of compound or vehicle for 30 minutes at 37° C. in HBSS buffer (pH 7.4) containing Ca^2+. 100 nM wortmannin was used as a positive control. Aliquots of each sample were transferred to a microtitre plate to which luminol (1 μM); obtained from Sigma; Catalogue No. A8511 is added. Activation of the neutrophils was immediately initiated by addition of (1 μM) fMLP; obtained from Sigma, Catalogue No. F3506. Light output from each well was recorded for 30 minutes in a microplate luminometer. Total light output (integral of the time-course) was determined for each well. Inhibitory activities of test drugs against neutrophil ROS generation is expressed as percentage activity relative to a no drug control (100% activation or generation of ROS) containing 0.25% DMSO. Concentration of test compound required to inhibit the generation of ROS to 50% of control values (IC50's) were determined from concentration-response curves by non-linear regression analysis.

Setting [7] is: Mus musculus, topical administration, 50 μg/ear, RTX 0.1 μg/ear.
Setting [8] is: read-out: IC50 range (μM) 10-100.
Setting [9] is: read-out: IC50 RANGE (μM) <1, ROS production, X marks this range.

SMILES strings stand for the structures. Like-named read-outs stand apart in the source and are kept apart here.

We go through 10 molecules from patent US20030186943A1, “Substituted gamma-phenyl-delta-lactams and uses related thereto” (Inflazyme Pharmaceuticals Ltd., priority 1998, published 2003).

In general, EC50 refers to the midpoint of the concentration-response curve. A word on the IC50: it is the concentration that gives 50% inhibition. What is called inhibition in vivo is the relative decrease from the control value, in per cent. A higher inhibition in vivo goes with a response far below the control.

Consider `COc1ccc([C@@H]2CCC(=O)OC2)cc1OC` [Compound 21], for which the EC50 in experiment [1] (read-out: EC50 range (μM) 1-25) was 1 to 25 µM. Besides, the “PDE4:HARBS” value in experiment [2] was under 1. The IC50 in experiment [3] is over 100 µM; in experiment [4] (read-out: IC50 RANGE (μM) 1-10) it was 1 to 10 µM; in experiment [6] (ROS production, X marks this range, read-out: IC50 RANGE (μM) 1-10) it was 1 to 10 µM. Further, the inhibition in vivo at 50 µg/ear in experiment [5] (setting [7]) is 32%.

With `COc1cc(C[C@H]2C[C@@H](c3ccc(OC)c(OC)c3)COC2=O)ccc1O` [Compound 29], in experiment [1] (read-out: EC50 range (μM) 1-25), the concentration for a half-maximal effect (EC50) is 1 to 25 µM. Moreover, the “PDE4:HARBS” value in experiment [2] is recorded as under 1. Moreover, the IC50 in experiment [3] (setting [8]) was 10 to 100 µM; in experiment [4] (read-out: IC50 RANGE (μM) 10-100), 10 to 100 µM; in experiment [6] (setting [9]), under 1 µM. The inhibition in vivo at 50 µg/ear in experiment [5] (setting [7]) is 76%.

Consider `COc1cc(CC2C[C@@H](c3ccc(OC)c(OC4CCCC4)c3)COC2=O)ccc1OCc1ccccc1` (some centres unmarked) [Compound 42], for which, in experiment [1] (read-out: EC50 range (μM) 1-25), the EC50 was in the range of 1 to 25 µM. For the same molecule, in experiment [2], the “PDE4:HARBS” value was under 1. Also, the IC50 is over 100 µM in experiment [3] and 10 to 100 µM in experiment [6] (ROS production, X marks this range, read-out: IC50 RANGE (μM) 10-100). The inhibition in vivo at 100 mg/kg in experiment [5] (Mus musculus) stood at 38%. The molecule also came in with an inhibition in vivo at 10 mg/kg in experiment [5] (Mus musculus, oral administration, 10 mg/kg) of 41%.

`BrCc1ccc(OCc2ccccc2)c(OCc2ccccc2)c1` [Compound 78, 3,4-dibenzyloxy benzyl bromide] registered an inhibition in vivo at 50 µg/ear in experiment [5] (setting [7]) of 93%.

As for `COc1ccc([C@@H](CO)CCC(=O)OC(C)(C)C)cc1OCc1ccccc1` [Compound 91], the “% Inhibition of Edema” value in experiment [5] (topical administration, 50 μg/ear, RTX 0.1 μg/ear) is 27%.

Consider `COc1ccc([C@@H]2CCC(=O)OC2)cc1OCc1ccccc1` [Compound 92], for which the inhibition in vivo at 50 µg/ear in experiment [5] (setting [7]) is 93%.

Consider `CCCCOc1cc([C@@H]2CCC(=O)OC2)ccc1OC` [Compound 99], for which, in experiment [1] (read-out: EC50 range (μM) 0.1-1), the EC50 fell in the range of 0.1 to 1 µM. The “PDE4:HARBS” value in experiment [2] is listed as over 1. The IC50 in experiment [3] is over 100 µM; in experiment [6] (setting [9]), under 1 µM. Moreover, the inhibition in vivo at 100 mg/kg in experiment [5] (Mus musculus) turned out to be 88%. The molecule also showed an inhibition in vivo at 50 µg/ear in experiment [5] (setting [7]) of 98%.

As for `COc1ccc([C@@H]2CCC(=O)OC2)cc1OC(C)=O` [Compound 103], the inhibition in vivo at 50 µg/ear in experiment [5] (setting [7]) came to 94%.

As for `COc1cc(CC2CC(c3ccc(OC)c(OC)c3)COC2=O)ccc1O` (centres unmarked) [Compound 129], the EC50 in experiment [1] (read-out: EC50 range (μM) 1-25) was 1 to 25 µM. In experiment [2], the “PDE4:HARBS” value was under 1. The IC50 in experiment [3] (setting [8]) is 10 to 100 µM; in experiment [4] (read-out: IC50 RANGE (μM) 1-10), 1 to 10 µM; in experiment [6] (setting [9]) it was under 1 µM.

With `COc1cc(C[C@@H]2C[C@H](c3ccc(OC)c(OC)c3)COC2=O)ccc1O` [Compound 130], the EC50 in experiment [1] (read-out: EC50 range (μM) 1-25) fell in the range of 1 to 25 µM. In addition, the “PDE4:HARBS” value in experiment [2] is recorded as under 1. Also, the values for the IC50 in experiment [3] (setting [8]), in experiment [4] (read-out: IC50 RANGE (μM) 1-10) and in experiment [6] (setting [9]) were 10 to 100 µM, 1 to 10 µM and under 1 µM, respectively.
